Measurements reported in patent US20230157991A1, “PHARMACEUTICAL COMPOSITION FOR TREATING ACUTE AND CHRONIC PAIN, CONTAINING POLMACOXIB AND TRAMADOL” (CrystalGenomics, Inc., priority 2017, published 2023).

Experiments:
[1] = system: MIA-induced osteoarthritis rat model (mechanical allodynia); assay: Analgesic efficacy: paw withdrawal threshold (Von Frey, dynamic plantar aesthesiometer) in MIA-induced osteoarthritis rats; assay type: in vivo, Sprague Dawley rats; details: G3 acetaminophen 300 mg/kg+tramadol HCl 30 mg/kg, G4 polmacoxib 0.3 mg/kg, G5 tramadol HCl 30 mg/kg
Method: To evaluate analgesic efficacy, paw withdrawal threshold (PWT, g) was measured using a dynamic planter aesthesiometer (Ugo Basile S.R.L, Italy).
Von Frey filament used in this experiment has a constant pressure during bending, thereby imparting a constant stimulation. At this time, physical allodynia appears as an avoidance response, thereby enabling quantification of the pain index.
1) The pain suppression effect was measured by imparting physical stimulation with Von Frey filament using Dynamic plantar aesthesiometer (UGO BASILE 37450, Italy).
2) Rats were placed individually in each acrylic cage, allowing the rats to stay for 15 minutes to habituate to the new environment.
3) After habituation, the aesthesiometer was set to 0 ˜ 50 g and 0 ˜ 20 s. The measurement of allodynia by stimulation of the stimulator is performed by stimulating the bottom part of the affected foot, increasing the force incrementally (0-50 g), and measuring the hind paw withdraw threshold (force at the moment when the test body avoided the stimulator:gram) in triplicate at 5 min intervals.
4) The paw withdrawal threshold (PWT) was measured in duplicate at a fixed time within 2 weeks (day 10) and within 3 weeks (day 17) after administration of the test substance.

MMP-3 = details: MIA osteoarthritis SD rats, oral once daily 3 weeks
[2] = system: MIA-induced osteoarthritis rat model (tissues of liver and stomach); assay: Histopathology of stomach and liver (H&E); assay type: in vivo, Sprague Dawley rats; details: G5 tramadol HCl 30 mg/kg; for gastric tissue analysis / gastric irritation, summary in words / epithelial detachment of cardiac gland (stomach histopathology): G4 polmacoxib 0.3 mg/kg; for gastric tissue analysis / gastric irritation, summary in words: co-administration groups G6 and G7 (both doses); for epithelial detachment of cardiac gland (stomach histopathology): mild level in G3 and G4, G3 acetaminophen 300+tramadol HCl 30 mg/kg
Description: Tissue sections were stained for histological evaluation.
1) Tissues of liver and stomach among isolated organs were sufficiently immobilized in 10% neutral buffered formalin solution, followed by general tissue treatment procedures such as trimming, dehydration and paraffin embedding to prepare tissue sections and cut them to about 4 μm. Thereafter, they were stained with Hematoxylin & Eosin (H&E) and examined microscopically.

[3] = system: MIA-induced osteoarthritis rat model (knee joint); assay: Histological evaluation of knee joint (H&E, safranin O-fast green, modified Mankin score); assay type: in vivo, Sprague Dawley rats; details: compared to positive control group G3; G5 tramadol HCl 30 mg/kg, co-administration groups G6 and G7 (both doses)
Method: 2) The collected knee joint tissues were immobilized in 10% formalin for 24 hours, and decalcificated for 72 hours while exchanging the solution with 10% formic acid at a 24-hour time interval prior to tissue treatment. The sagittal section of the knee joint was prepared through a coronal section so that the medial and lateral condyle articular surface of femur and tibia were well identified.
3) Subsequently, after a general tissue treatment procedure such as dehydration, clearing and penetration, paraffin embedding was performed and a 5 μm thin slice of knee joint was prepared with a rotary microtome. It was subject to deparaffinization and hydration, followed by Hematoxylin & Eosin (H&E) staining.
4) For safranin-O fast green (SOFG) staining, after deparaffinization and hydration, the thin slice of knee joint was reacted in Weigert's iron hematoxylin solution (HT110232, Sigma, St Louis, USA) for 10 minutes and washed with water, and then stained in 0.02% fast green (FCF) solution (F7258, Sigma, St Louis, USA) for 5 minutes. Subsequently, it was reacted in 1% acetic acid solution and then stained with 0.1% safranin O solution (S2255, Sigma, St Louis). The slide stained with safranin O-fast green was washed for 5 minutes to have clear color of nucleus. After dehydration and clarification, it was sealed. […]

[4] = system: MIA-induced osteoarthritis rat model (stomach, liver); assay: Gross necropsy observation after completion of the experiment; details: n=10 per group, G5 tramadol HCl 30 mg/kg, oral once daily 3 weeks
[5] = Body weight change and clinical observation in MIA-induced osteoarthritis rat model; details: MIA osteoarthritis SD rats, oral once daily 3 weeks; G3 acetaminophen 300 mg/kg+tramadol HCl 30 mg/kg, G4 polmacoxib 0.3 mg/kg, G5 tramadol HCl 30 mg/kg
Method: In order to evaluate therapeutic effect of osteoarthritis, an animal model of osteoarthritis was prepared in Sprague Dawley rats (n=10 per group).
1) Monosodium iodoacetate (MIA, I2512, Sigma, Poole, UK) was dissolved in 0.9% sterile saline for injection at a concentration of 60 mg/ml and prepared on the day of the experiment (day 0).
2) After group separation, animals (Sprague Dawley rats) were placed in an anesthesia chamber (Matrix, US/VME-2) and anesthetized using diethyl ether. Thereafter, subjects in the induced group (G2 to G9) were injected once with 50 μl of MIA per subject (MIA 3 mg/head) into a left knee joint space via a patellar tendon using an insulin syringe (BD™ insulin syringe with Ultra-Fine™ Short Needle, 31 gauge). The number of animals in each group was 10, and the negative control group (G1) was injected once with 50 μl of saline at the same position in the left knee joint.
Group separation was performed only on animals judged to have no quarantine abnormalities during acclimation period, followed by MIA administration. On the 6th day after MIA administration, the weight bearing of hind leg for a total of 100 subjects administered with MIA was measured and the affected subjects with high weight bearing of left hind leg were sequentially excluded to select 70 subjects. […]

[6] = 10-day evaluation, induced group G2 14.7 g
[7] = second evaluation (time not given; day 17 per method)

CC1(C)OC(c2ccc(S(N)(=O)=O)cc2)=C(c2cccc(F)c2)C1=O [polmacoxib, 5-(4-(aminosulfonyl)-phenyl)-2,2-dimethyl-4-(3-fluorophenyl)-3(2H)-furanone]
paw withdrawal threshold (PWT) [1, 6]: 24.2 g | paw withdrawal threshold (PWT) [1, 7]: 24.2 g | level of MMP-3 in serum obtained after 3 weeks of treatment, in words (MMP-3): lower MMP-3 levels compared to the groups G3 and G5 | gastric tissue analysis / gastric irritation, summary in words [2]: epithelial detachment of pyloric | epithelial detachment of cardiac gland (stomach histopathology) ([2]; n=10 per group): 4 cases

COc1cccc(C2(O)CCCCC2CN(C)C)c1.Cl (stereo not drawn) [tramadol hydrochloride, 2-(dimethylaminomethyl)-1-(3-methoxyphenyl)]
paw withdrawal threshold (PWT) [1, 6]: 26.3 g | paw withdrawal threshold (PWT) [1, 7]: 26.3 g | cluster formation of chondrocytes, in words [3]: improvement effects compared to the positive control group G3 | gastric wall thickening at gross necropsy ([4]; G3 acetaminophen 300 mg/kg+tramadol HCl 30 mg/kg): 3 cases | gastric mucosal petechial hemorrhage at gross necropsy ([4]; G3 acetaminophen 300+tramadol HCl 30 mg/kg, G7 polmacoxib 0.3+tramadol HCl 30 mg/kg): 3 cases | nodules on the surface of liver at gross necropsy [4]: 1 case | gastric tissue analysis / gastric irritation, summary in words [2]: epithelial detachments of cardia and pyloric and erosion | erosion of cardiac gland and fundic gland (stomach histopathology) ([2]; n=10 per group, oral once daily 3 weeks): 4 cases | epithelial detachment of cardiac gland (stomach histopathology) ([2]; n=10 per group): 2 cases | weight gain at end of test compared to average weight at beginning [5]: 18.5%
